From US6143769A, “Phenylacetic acid benzylamides” (Karl Thomae GmbH, priority 1983, dated 2000)

Legend:
glucose = assay: Study 5: plasma glucose after 1 mg AG-EE 388 ZW i.v., oral solution or capsule; format: in vivo, human
Description: Blood samples were taken at different times.

[1] = Study 2: plasma concentration, HPLC; format: in vivo, human; conditions: for concentration at 0.2 h: 0.20 h; for concentration at 0.5 h: 0.50 h; for concentration at 1.5 h: 1.50 h
Description: Blood samples were taken at various times.

[2] = human, plasma, po, 2 mg, 2 mg capsule
[3] = human, plasma, po, 2 mg, 2 mg tablet

With CCOc1cc(CC(=O)NC(CC(C)C)c2ccccc2N2CCCCC2)ccc1C(=O)O (racemic) [AG-EE 388 ZW, 2-ethoxy-4-[N-[1-(2-piperidino-phenyl)-3-methyl-1-butyl]aminocarbonylmethyl]-benzoic acid] the “Glucose (mean)” value (glucose; 1 mg i.v., 0.00 h) was 6.10 mmol/L, the “Glucose (mean)” value (glucose; 1 mg p.o. capsule, 0.00 h) was 5.32 mmol/L and the “Glucose (mean)” value (glucose; 1 mg p.o. solution, 0.00 h) was 5.85 mmol/L. For the same molecule, the “Glucose (mean)” value (glucose; i.v., 0.08 h) was 6.54 mmol/L, the “Glucose (mean)” value (glucose; i.v., 0.17 h) was 6.46 mmol/L and the “Glucose (mean)” value (glucose; i.v., 0.25 h) was 6.46 mmol/L. The “Glucose (mean)” value (glucose; i.v., 0.28 h) was 6.46 mmol/L, the “Glucose (mean)” value (glucose; i.v., 0.33 h) was 6.40 mmol/L and the “Glucose (mean)” value (glucose; i.v., 0.42 h) was 6.01 mmol/L. For the same molecule, the “Glucose (mean)” value (glucose; i.v., 0.50 h) was 5.86 mmol/L, the “Glucose (mean)” value (glucose; i.v., 0.75 h) was 5.14 mmol/L and the “Glucose (mean)” value (glucose; i.v., 1.00 h) was 4.57 mmol/L. For the same molecule, the “Glucose (mean)” value (glucose; i.v., 1.50 h) was 4.55 mmol/L, the “Glucose (mean)” value (glucose; i.v., 2.00 h (breakfast)) was 5.11 mmol/L and the “Glucose (mean)” value (glucose; i.v., 2.50 h) was 7.14 mmol/L. The “Glucose (mean)” value (glucose; i.v., 3.00 h) was 6.31 mmol/L, the “Glucose (mean)” value (glucose; i.v., 4.00 h) was 5.58 mmol/L and the “Glucose (mean)” value (glucose; i.v., 5.00 h (lunch)) was 5.48 mmol/L. For the same molecule, the “Glucose (mean)” value (glucose; i.v., 6.00 h) was 6.53 mmol/L, the “Glucose (mean)” value (glucose; i.v., 9.00 h) was 6.49 mmol/L and the “Glucose (mean)” value (glucose; i.v., 24.00 h) was 6.24 mmol/L. For the same molecule, the “Glucose (mean)” value (glucose; p.o. capsule, 0.25 h) was 6.08 mmol/L, the “Glucose (mean)” value (glucose; p.o. capsule, 0.50 h) was 5.87 mmol/L and the “Glucose (mean)” value (glucose; p.o. capsule, 0.75 h) was 5.85 mmol/L. The “Glucose (mean)” value (glucose; p.o. capsule, 1.00 h) was 5.57 mmol/L, the “Glucose (mean)” value (glucose; p.o. capsule, 1.50 h) was 5.24 mmol/L and the “Glucose (mean)” value (glucose; p.o. capsule, 2.00 h (breakfast)) was 5.04 mmol/L. The “Glucose (mean)” value (glucose; p.o. capsule, 3.00 h) was 5.04 mmol/L, the “Glucose (mean)” value (glucose; p.o. capsule, 4.00 h) was 4.43 mmol/L and the “Glucose (mean)” value (glucose; p.o. capsule, 5.00 h (lunch)) was 4.71 mmol/L. The “Glucose (mean)” value (glucose; p.o. capsule, 6.00 h) was 5.41 mmol/L, the “Glucose (mean)” value (glucose; p.o. capsule, 9.00 h) was 5.42 mmol/L and the “Glucose (mean)” value (glucose; p.o. capsule, 24.00 h) was 5.44 mmol/L. The “Glucose (mean)” value (glucose; p.o. solution, 0.25 h) was 6.13 mmol/L, the “Glucose (mean)” value (glucose; p.o. solution, 0.50 h) was 5.99 mmol/L and the “Glucose (mean)” value (glucose; p.o. solution, 0.75 h) was 5.83 mmol/L. The “Glucose (mean)” value (glucose; p.o. solution, 1.00 h) was 5.77 mmol/L, the “Glucose (mean)” value (glucose; p.o. solution, 1.50 h) was 5.40 mmol/L and the “Glucose (mean)” value (glucose; p.o. solution, 2.00 h (breakfast)) was 5.11 mmol/L. The “Glucose (mean)” value (glucose; p.o. solution, 3.00 h) was 5.40 mmol/L, the “Glucose (mean)” value (glucose; p.o. solution, 4.00 h) was 4.86 mmol/L and the “Glucose (mean)” value (glucose; p.o. solution, 5.00 h (lunch)) was 5.12 mmol/L. The “Glucose (mean)” value (glucose; p.o. solution, 6.00 h) was 5.60 mmol/L, the “Glucose (mean)” value (glucose; p.o. solution, 9.00 h) was 5.68 mmol/L and the “Glucose (mean)” value (glucose; p.o. solution, 24.00 h) was 5.60 mmol/L. For the same molecule, the “Concentration (mean)” value ([1]; 2 mg capsule, 0 h) was 0.0 ng/mL, the “Concentration (mean)” value ([1]; 2 mg capsule, 4.00 h, listed as 388, 240 min) was 17 ± 5 ng/mL and the “Concentration (mean)” value ([1]; 2 mg capsule, 5.00 h, listed as 388, 300 min) was 12 ± 3 ng/mL. The “Concentration (mean)” value ([1]; 2 mg capsule, 6.00 h, listed as 388, 360 min) was 8 ± 4 ng/mL, the “Concentration (mean)” value ([1]; 2 mg capsule, 24.00 h) was 0.0 ng/mL and the “Rise and peak of plasma level, tablet versus capsule” value ([1]; 2 mg p.o.) was “rises rather more rapidly after administration of the tablet and reaches its peak somewhat earlier”. For the same molecule, the “Time at which level reaches / falls below the detection limit” value ([1]; 2 mg p.o.) was no less than 6 h, the “Time at which level reaches / falls below the detection limit” value ([1]; 2 mg p.o., listed as AG-EE 398 ZW) was “about 6 hours” and the Maximum concentration ([1]; 2 mg tablet p.o.) was 83.5 ± 25.5 ng/mL. The “Concentration (mean)” value ([1]; 2 mg tablet, 0 h) was 0.0 ng/mL, the “Concentration (mean)” value ([1]; 2 mg tablet, 4.00 h, 240 min) was 19.1 ng/mL and the “Concentration (mean)” value ([1]; 2 mg tablet, 24.00 h) was 0.0 ng/mL. For the same molecule, the concentration at 0.2 h [1, 2] was 0.9 ng/mL, the concentration at 0.33 h [1, 2] was 17.5 ng/mL and the concentration at 0.5 h [1, 2] was 44.9 ng/mL. It also gave a concentration at 0.75 h [1, 2] of 66.4 ng/mL, a concentration at 1 h [1, 2] of 73.7 ng/mL and a concentration at 1.5 h [1, 2] of 65.1 ng/mL. It also gave a concentration at 2 h [1, 2] of 50.8 ng/mL, a concentration at 3 h [1, 2] of 27.9 ng/mL and a concentration at 4 h ([1]; human, plasma, po, 2 mg, 2 mg capsule, 4.00 h) of 16.8 ng/mL. The concentration at 5 h ([1]; human, plasma, po, 2 mg, 2 mg capsule, 5.00 h) was 12.2 ng/mL, the concentration at 6 h ([1]; human, plasma, po, 2 mg, 2 mg capsule, 6.00 h) was 7.8 ng/mL and the concentration at 9 h ([1]; human, plasma, po, 2 mg, 2 mg capsule, 9.00 h) was 3.3 ng/mL. It also gave a concentration at 0.2 h [1, 3] of 15 ng/mL, a concentration at 0.33 h [1, 3] of 55.6 ng/mL and a concentration at 0.5 h [1, 3] of 75.6 ng/mL. The concentration at 0.75 h [1, 3] was 83.5 ng/mL, the concentration at 1 h [1, 3] was 81.3 ng/mL and the concentration at 1.5 h [1, 3] was 65.9 ng/mL. The concentration at 2 h [1, 3] was 51.3 ng/mL, the concentration at 3 h [1, 3] was 32.4 ng/mL and the concentration at 5 h ([1]; human, plasma, po, 2 mg, 2 mg tablet, 5.00 h) was 13.2 ng/mL. The concentration at 6 h ([1]; human, plasma, po, 2 mg, 2 mg tablet, 6.00 h) was 9.5 ng/mL.
